The assay deals with T1, rat brain N-type calcium channel subunits (α1B+α2δ+β1b cDNA subunits) (Rattus norvegicus, UniProt Q02294).
T1 construct: expressed in transfected cells; host or cells: HEK 293
In words: N-type calcium channel block, whole cell patch clamp in transfected HEK 293 cells. It is filed as cell-based. Here is the method: N-type calcium channel blocking activity was assayed in human embryonic kidney cells, HEK 293, stably transfected with the rat brain N-type calcium channel subunits (α1B+α2δ+β1b cDNA subunits). Alternatively, N-type calcium channels (α1B+α2δ+β1b cDNA subunits), L-type channels (α1C+α2δ+β1b cDNA subunits) and P/Q-type channels (α1A+α2δ+β1b cDNA subunits) were transiently expressed in HEK 293 cells. Briefly, cells were cultured in Dulbecco's modified eagle medium (DMEM) supplemented with 10% fetal bovine serum, 200 U/ml penicillin and 0.2 mg/ml streptomycin at 37° C. with 5% CO2. At 85% confluency cells were split with 0.25% trypsin/1 mM EDTA and plated at 10% confluency on glass coverslips. At 12 hours the medium was replaced and the cells transiently transfected using a standard calcium phosphate protocol and the appropriate calcium channel cDNA's. Fresh DMEM was supplied and the cells transferred to 28° C./5% CO2. Cells were incubated for 1 to 2 days prior to whole cell recording.
Whole cell patch clamp experiments were performed using an Axopatch 200B amplifier (Axon Instruments, Burlingame, Calif.) linked to a personal computer equipped with pCLAMP software. The external and internal recording solutions contained, respectively, 5 mM BaCl2, 10 mM MgCl2, 10 mM HEPES, 40 mM TEACl, 10 mM glucose, 87.5 mM CsCl (pH 7.2) and 108 mM CsMS, 4 mM MgCl2, 9 mM EGTA, 9 mM HEPES (pH 7.2). Currents were typically elicited from a holding potential of −80 mV to +10 mV using Clampex software (Axon Instruments). Typically, currents were first elicited with low frequency stimulation (0.067 Hz) and allowed to stabilize prior to application of the compounds. The compounds were then applied during the low frequency pulse trains for two to three minutes to assess tonic block, and subsequently the pulse frequency was increased to 0.2 Hz to assess frequency dependent block. Data were analyzed using Clampfit (Axon Instruments) and SigmaPlot 4.0 (Jandel Scientific).
For orientation: In patch-clamp work, channel activity is measured electrically.

Where [1] appears, read: −50 mV, read-out: IC50 @ −50 mV.
[2] abbreviates: −80 mV, read-out: IC50 @ −80 mV.

Read-outs that look alike come from different tables or passages of the source.

T1 sequence (Q02294 whole entry): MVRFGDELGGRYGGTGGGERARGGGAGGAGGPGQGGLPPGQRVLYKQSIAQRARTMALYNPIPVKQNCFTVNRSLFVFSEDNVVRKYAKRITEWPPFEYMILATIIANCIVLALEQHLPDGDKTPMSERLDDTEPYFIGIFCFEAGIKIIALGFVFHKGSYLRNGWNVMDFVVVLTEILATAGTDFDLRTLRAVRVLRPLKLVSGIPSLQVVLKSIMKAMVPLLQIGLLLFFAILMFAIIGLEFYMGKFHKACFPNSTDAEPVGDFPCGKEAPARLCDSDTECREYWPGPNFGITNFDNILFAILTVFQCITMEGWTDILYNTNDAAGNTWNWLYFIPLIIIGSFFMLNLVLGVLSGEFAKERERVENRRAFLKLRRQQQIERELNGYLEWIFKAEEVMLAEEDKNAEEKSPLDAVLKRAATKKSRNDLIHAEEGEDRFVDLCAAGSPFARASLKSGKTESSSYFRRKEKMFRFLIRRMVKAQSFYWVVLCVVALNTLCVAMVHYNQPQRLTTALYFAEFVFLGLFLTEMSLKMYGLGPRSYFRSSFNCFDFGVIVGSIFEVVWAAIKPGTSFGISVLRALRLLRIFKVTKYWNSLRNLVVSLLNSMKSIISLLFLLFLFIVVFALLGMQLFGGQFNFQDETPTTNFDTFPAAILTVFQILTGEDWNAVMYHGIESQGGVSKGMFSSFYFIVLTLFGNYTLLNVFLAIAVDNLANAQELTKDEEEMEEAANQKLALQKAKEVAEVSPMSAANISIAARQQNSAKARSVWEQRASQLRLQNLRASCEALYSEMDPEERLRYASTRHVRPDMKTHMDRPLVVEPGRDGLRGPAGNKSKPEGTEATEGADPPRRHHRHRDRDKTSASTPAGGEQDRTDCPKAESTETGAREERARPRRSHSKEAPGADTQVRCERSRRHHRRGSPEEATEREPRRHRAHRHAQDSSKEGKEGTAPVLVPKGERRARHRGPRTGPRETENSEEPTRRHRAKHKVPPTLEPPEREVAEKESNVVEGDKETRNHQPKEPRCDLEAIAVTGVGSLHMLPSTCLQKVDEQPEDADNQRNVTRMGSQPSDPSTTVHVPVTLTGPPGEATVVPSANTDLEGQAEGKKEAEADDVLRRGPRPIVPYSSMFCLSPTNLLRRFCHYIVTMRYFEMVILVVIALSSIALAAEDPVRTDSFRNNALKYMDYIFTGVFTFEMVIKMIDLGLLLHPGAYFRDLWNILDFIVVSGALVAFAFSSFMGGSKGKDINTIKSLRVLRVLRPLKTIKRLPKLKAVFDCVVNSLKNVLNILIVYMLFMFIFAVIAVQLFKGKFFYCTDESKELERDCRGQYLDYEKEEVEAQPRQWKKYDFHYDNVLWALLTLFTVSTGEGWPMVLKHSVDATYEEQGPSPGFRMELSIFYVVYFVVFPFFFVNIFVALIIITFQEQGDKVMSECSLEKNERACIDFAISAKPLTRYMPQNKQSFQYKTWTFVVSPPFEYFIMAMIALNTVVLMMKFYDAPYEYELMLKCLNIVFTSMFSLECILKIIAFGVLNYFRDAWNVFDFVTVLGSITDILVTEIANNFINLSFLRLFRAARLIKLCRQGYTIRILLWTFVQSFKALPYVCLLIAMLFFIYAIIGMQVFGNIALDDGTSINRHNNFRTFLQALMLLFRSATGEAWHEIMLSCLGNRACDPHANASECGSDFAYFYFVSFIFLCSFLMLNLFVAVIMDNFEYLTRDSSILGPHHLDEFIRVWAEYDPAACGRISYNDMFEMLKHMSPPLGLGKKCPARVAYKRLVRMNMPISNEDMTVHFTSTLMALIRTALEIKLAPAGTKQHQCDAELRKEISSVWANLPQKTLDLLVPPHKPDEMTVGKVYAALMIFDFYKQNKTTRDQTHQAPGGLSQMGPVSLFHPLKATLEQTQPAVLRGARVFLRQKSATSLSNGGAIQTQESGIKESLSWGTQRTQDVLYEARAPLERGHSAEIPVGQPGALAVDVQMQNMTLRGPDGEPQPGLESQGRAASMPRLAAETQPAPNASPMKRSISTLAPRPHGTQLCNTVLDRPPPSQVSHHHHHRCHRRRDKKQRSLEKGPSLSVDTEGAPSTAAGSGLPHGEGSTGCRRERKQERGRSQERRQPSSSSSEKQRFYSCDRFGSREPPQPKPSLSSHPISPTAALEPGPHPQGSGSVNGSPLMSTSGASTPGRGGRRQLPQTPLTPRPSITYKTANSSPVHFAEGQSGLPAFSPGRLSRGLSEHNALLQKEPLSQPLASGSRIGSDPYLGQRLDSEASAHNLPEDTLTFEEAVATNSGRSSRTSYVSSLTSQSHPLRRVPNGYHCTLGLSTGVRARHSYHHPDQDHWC
T1 sequence (P54290 25-944 partner limits assumed): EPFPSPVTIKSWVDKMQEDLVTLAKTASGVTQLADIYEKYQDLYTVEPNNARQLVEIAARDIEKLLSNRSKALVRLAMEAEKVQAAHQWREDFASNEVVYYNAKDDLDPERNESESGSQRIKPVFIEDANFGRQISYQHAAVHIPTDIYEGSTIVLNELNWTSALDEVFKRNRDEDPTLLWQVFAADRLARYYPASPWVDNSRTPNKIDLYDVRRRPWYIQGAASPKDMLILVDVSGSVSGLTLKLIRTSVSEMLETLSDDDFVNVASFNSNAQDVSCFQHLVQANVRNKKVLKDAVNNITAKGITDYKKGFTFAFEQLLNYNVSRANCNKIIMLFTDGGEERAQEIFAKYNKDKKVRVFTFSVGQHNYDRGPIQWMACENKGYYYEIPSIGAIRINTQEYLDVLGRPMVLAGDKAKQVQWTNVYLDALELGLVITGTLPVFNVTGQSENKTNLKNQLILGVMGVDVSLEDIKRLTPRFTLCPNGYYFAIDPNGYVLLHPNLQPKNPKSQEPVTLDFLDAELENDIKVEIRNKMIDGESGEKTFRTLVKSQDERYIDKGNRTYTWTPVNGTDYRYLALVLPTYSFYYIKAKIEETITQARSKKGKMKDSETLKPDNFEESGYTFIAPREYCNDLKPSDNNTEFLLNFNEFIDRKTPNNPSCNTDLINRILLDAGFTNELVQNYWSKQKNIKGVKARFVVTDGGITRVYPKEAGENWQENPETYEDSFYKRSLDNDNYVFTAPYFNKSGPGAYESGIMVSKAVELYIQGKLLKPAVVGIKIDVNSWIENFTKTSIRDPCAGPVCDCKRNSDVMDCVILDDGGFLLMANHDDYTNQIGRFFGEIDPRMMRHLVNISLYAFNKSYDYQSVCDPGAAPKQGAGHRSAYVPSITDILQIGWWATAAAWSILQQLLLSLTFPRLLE
T1 sequence (P54290 945-1091 partner limits assumed): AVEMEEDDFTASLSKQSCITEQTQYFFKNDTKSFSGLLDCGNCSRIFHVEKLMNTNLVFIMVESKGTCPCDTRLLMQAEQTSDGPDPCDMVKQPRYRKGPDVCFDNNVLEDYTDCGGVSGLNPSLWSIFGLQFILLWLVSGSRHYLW
T1 sequence (P54283 whole entry partner): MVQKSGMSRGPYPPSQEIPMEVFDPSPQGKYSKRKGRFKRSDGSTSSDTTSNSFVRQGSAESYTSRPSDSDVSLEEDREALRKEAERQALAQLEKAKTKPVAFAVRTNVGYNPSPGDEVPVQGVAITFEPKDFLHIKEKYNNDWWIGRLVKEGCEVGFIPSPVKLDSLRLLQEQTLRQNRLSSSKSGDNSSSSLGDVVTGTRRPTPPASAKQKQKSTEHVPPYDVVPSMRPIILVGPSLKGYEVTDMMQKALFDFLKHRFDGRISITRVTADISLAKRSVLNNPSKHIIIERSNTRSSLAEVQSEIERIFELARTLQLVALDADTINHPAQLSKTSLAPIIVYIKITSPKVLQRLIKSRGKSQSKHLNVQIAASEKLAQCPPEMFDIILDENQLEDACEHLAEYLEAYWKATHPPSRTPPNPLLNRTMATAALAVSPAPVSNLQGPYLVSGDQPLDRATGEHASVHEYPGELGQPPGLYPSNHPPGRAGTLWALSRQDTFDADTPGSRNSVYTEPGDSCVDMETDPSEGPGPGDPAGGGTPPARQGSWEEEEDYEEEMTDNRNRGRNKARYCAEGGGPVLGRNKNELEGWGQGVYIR

By IC50 is commonly meant the point on the concentration scale where inhibition reaches its midpoint. With `O=C(CN1CCN(C(c2ccc(F)cc2)c2ccc(F)cc2)CC1)Nc1nc2ccc(F)cc2s1` [Compound 2, 2-(4-(bis(4-fluorophenyl)methyl)piperazin-1-yl)-N-(6-fluorobenzo[d]thiazol-2-yl)acetamide], the half-inhibitory concentration (IC50) runs as follows: under setting [1], 490 nM; under setting [2], 920 nM.
Regarding `Cc1ccc(-c2csc(NC(=O)CN3CCN(C(c4ccc(F)cc4)c4ccc(F)cc4)CC3)n2)cc1` [Compound 10, 2-(4-(bis(4-fluorophenyl)methyl)piperazin-1-yl)-N-(4-p-tolylthiazol-2-yl)acetamide], the IC50 reads like this: under setting [1], 1910 nM; under setting [2], 3540 nM.
The corresponding values for `O=C(CN1CCN(C(c2ccccc2)c2ccccc2)CC1)Nc1nc2ccc(Cl)cc2s1` [Compound 11, 2-(4-benzhydrylpiperazin-1-yl)-N-(6-chlorobenzo[d]thiazol-2-yl)acetamide] are 1600 nM and 3400 nM.
On the same counts, the results for `O=C(CN1CCN(C(c2ccc(F)cc2)c2ccc(F)cc2)CC1)Nc1nccs1` [Compound 4, 2-(4-(bis(4-fluorophenyl)methyl)piperazin-1-yl)-N-(thiazol-2-yl)acetamide] are 1200 nM and 3400 nM.
On the same counts, the results for `Cc1cnc(NC(=O)CN2CCN(C(c3ccccc3)c3ccccc3)CC2)s1` [Compound 5, 2-(4-benzhydrylpiperazin-1-yl)-N-(5-methylthiazol-2-yl)acetamide] are 780 nM and 1950 nM.
On to `O=C(CN1CCN(C(c2ccc(F)cc2)c2ccc(F)cc2)CC1)Nc1nc2ccc(Cl)cc2s1` [Compound 12, 2-(4-(bis(4-fluorophenyl)methyl)piperazin-1-yl)-N-(6-chlorobenzo[d]thiazol-2-yl)acetamide], for which the IC50 amounted to 2560 nM under setting [1] and 4580 nM under setting [2].
The corresponding values for `O=C(CN1CCN(C(c2ccccc2)c2ccccc2)CC1)Nc1nc2ccccc2s1` [Compound 16, 2-(4-benzhydrylpiperazin-1-yl)-N-(benzo[d]thiazol-2-yl)acetamide] are 600 nM and 1210 nM.
As to `Cc1ccc(-c2csc(NC(=O)CN3CCN(C(c4ccccc4)c4ccccc4)CC3)n2)cc1` [Compound 9, 2-(4-benzhydrylpiperazin-1-yl)-N-(4-p-tolylthiazol-2-yl)acetamide], the IC50 by setting is: under setting [1], 2500 nM; under setting [2], 6400 nM.
The corresponding values for `O=C(CN1CCN(C(c2ccccc2)c2ccccc2)CC1)Nc1nc2ccccc2[nH]1` [Compound 14, 2-(4-benzhydrylpiperazin-1-yl)-N-(1H-benzo[d]imidazol-2-yl)acetamide] are 250 nM and 290 nM.
On the same counts, the results for `O=C(CN1CCN(C(c2ccc(F)cc2)c2ccc(F)cc2)CC1)Nc1ncc(Cl)s1` [Compound 8, 2-(4-(bis(4-fluorophenyl)methyl)piperazin-1-yl)-N-(5-chlorothiazol-2-yl)acetamide] are 530 nM and 1040 nM.
`CS(=O)(=O)c1ccc2nc(NC(=O)CN3CCN(C(c4ccccc4)c4ccccc4)CC3)sc2c1` [Compound 20, 2-(4-benzhydrylpiperazin-1-yl)-N-(6-mesylbenzo[d]thiazol-2-yl)acetamide]: the IC50 under setting [1] is 1640 nM and the IC50 under setting [2] came to 3130 nM.
On to `O=C(CN1CCN(C(c2ccc(F)cc2)c2ccc(F)cc2)CC1)Nc1nc2ccccc2s1` [Compound 17, N-(benzo[d]thiazol-2-yl)-2-(4-(bis(4-fluorophenyl)methyl)piperazin-1-yl)acetamide], for which the IC50 came to 530 nM under setting [1] and 2530 nM under setting [2].
On the same counts, the results for `O=C(CN1CCN(C(c2ccccc2)c2ccccc2)CC1)Nc1nc2ccc(OC(F)(F)F)cc2s1` [Compound 18, 2-(4-benzhydrylpiperazin-1-yl)-N-(6-trifluoromethoxybenzo[d]thiazol-2-yl)acetamide] are 1160 nM and 2900 nM.
The corresponding values for `O=C(CN1CCN(C(c2ccccc2)c2ccccc2)CC1)Nc1nc2ccc(F)cc2s1` [Compound 1, 2-(4-benzhydrylpiperazin-1-yl)-N-(6-fluorobenzo[d]thiazol-2-yl)acetamide] are 400 nM and 770 nM.
Consider `COc1ccc2nc(NC(=O)CN3CCN(C(c4ccccc4)c4ccccc4)CC3)sc2c1` [Compound 19, 2-(4-benzhydrylpiperazin-1-yl)-N-(6-methoxybenzo[d]thiazol-2-yl)acetamide], for which the IC50 under setting [1] turned out to be 1540 nM and the IC50 under setting [2] came to 3160 nM.

These data come from patent US20100029681A1, “HETEROCYCLIC COMPOUNDS AS CALCIUM CHANNEL BLOCKERS” (priority 2006, published 2010).
